Key:
[1] = target: T1, Neuronal acetylcholine receptor; alpha4/beta2 (Rattus norvegicus, UniProt P09483+P12390); assay: Displacement of [3H]-epibatidine from alpha4beta2-nACHR in rat cerebral cortex membranes preincubated for 30 mins followed by overnight incubation with [3H]-epibatine; assay type: cell membranes, Membrane
HEK243 = assay: Selectivity ratio of Ki for human alpha3beta4-nACHR expressed in […] cells to Ki for alpha4beta2-nACHR in rat cerebral cortex membranes; assay type: cell-based
[2] = target: Neuronal acetylcholine receptor; alpha3/beta4 (Homo sapiens, UniProt P30926+P32297); assay: Displacement of [3H]-epibatine from human alpha3beta4-nACHR expressed in […] cell membranes preincubated for 5 mins followed by overnight incubation with [3H]-epibatine by liquid scintillation counting analysis
Chain of Neuronal acetylcholine receptor; alpha3/beta4 (P30926 whole entry): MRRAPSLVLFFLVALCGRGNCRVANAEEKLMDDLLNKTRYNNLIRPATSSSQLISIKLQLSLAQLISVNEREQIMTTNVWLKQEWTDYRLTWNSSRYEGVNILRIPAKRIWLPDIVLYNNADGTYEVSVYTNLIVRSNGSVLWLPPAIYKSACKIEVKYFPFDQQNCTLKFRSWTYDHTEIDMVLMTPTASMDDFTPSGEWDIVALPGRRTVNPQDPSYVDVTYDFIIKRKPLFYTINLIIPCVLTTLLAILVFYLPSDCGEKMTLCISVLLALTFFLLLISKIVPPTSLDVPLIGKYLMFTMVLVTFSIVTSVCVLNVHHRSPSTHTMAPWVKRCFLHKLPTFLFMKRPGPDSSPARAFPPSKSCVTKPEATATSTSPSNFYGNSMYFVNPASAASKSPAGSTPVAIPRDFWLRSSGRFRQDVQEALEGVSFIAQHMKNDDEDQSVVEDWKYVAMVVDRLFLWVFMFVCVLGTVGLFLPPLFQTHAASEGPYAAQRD
Chain of Neuronal acetylcholine receptor; alpha3/beta4 (P32297 whole entry): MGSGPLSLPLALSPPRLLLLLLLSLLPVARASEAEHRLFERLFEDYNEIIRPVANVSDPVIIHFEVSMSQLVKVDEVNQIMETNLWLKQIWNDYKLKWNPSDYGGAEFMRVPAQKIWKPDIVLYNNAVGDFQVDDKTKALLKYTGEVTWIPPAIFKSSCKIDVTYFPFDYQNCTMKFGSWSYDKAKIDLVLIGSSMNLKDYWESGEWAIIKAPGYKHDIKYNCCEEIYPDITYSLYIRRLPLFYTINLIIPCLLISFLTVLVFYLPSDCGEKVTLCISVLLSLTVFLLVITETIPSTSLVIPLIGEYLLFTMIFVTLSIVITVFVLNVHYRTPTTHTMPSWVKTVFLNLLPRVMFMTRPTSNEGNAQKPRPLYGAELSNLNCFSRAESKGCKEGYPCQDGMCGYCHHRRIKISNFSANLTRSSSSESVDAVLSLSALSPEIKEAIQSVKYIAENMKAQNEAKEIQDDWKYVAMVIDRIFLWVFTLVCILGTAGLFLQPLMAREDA

[3] = target: T1, Neuronal acetylcholine receptor; alpha4/beta2; assay: Displacement of [3H]-cytisine from alpha4beta2-nACHR in rat whole brain membranes incubated for 60 mins; assay type: cell membranes, Membrane

T1 sequence (P09483 whole entry): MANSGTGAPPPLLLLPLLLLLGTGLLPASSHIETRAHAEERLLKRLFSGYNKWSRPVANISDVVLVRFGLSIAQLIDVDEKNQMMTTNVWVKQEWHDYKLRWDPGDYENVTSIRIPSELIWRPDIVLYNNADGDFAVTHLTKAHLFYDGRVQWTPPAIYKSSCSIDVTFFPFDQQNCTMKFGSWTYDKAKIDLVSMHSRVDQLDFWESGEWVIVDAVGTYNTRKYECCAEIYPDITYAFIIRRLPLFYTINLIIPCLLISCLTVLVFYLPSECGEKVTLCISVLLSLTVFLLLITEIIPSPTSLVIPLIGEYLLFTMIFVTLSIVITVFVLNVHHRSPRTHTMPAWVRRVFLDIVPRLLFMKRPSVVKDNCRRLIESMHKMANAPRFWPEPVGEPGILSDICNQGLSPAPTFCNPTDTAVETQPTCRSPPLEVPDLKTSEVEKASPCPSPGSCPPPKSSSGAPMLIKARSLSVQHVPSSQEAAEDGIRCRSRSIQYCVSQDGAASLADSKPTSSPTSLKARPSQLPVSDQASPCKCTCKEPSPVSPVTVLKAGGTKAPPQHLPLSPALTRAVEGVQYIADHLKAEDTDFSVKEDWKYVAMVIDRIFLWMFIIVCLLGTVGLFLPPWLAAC
T1 sequence (P12390 whole entry): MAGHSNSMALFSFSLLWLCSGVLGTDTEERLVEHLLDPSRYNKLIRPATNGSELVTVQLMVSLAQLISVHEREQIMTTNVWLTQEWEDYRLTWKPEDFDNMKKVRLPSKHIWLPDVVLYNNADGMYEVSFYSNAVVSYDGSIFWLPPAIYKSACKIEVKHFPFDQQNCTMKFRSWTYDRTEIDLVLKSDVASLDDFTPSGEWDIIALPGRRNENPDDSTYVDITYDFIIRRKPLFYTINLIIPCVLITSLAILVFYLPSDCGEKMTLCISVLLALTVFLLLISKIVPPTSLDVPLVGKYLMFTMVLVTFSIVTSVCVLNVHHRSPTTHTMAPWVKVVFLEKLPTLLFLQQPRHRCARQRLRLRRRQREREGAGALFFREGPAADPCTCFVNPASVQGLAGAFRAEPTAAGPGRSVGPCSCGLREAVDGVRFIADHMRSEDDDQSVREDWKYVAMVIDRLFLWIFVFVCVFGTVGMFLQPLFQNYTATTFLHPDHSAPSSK

Row | SMILES | Ki [1] [nM] | Ratio Ki (HEK243) | Ki [2] [nM] | Ki [3] [nM]
1 | CN1CCC[C@H]1COc1cc(O)cc(-c2ccccc2)c1 | 528 | 0.4 | 200 | 
2 | CN1CCC[C@H]1COc1cc(O)cc(-c2ccc(O)cc2)c1 | 3.8 | 8 | 30 | 
3 | CN1CCC[C@H]1COc1cccc([N+](=O)[O-])c1 | 31.2 | 30 | 946 | 9
4 | CN1CCC[C@H]1COc1cc(O)cc(Br)c1 | 186 | 0.8 | 147 | 
5 | CN1CCC[C@H]1COc1cc(C#CCCCCO)cc([N+](=O)[O-])c1 | 14.2 | 85 | 1200 | 
6 | CN1CCC[C@H]1COc1cc(-c2ccccc2)cc([N+](=O)[O-])c1 | 330 | 3 | 947 | 
7 | CN1CCC[C@H]1COc1cc(-c2ccc(O)cc2)cc([N+](=O)[O-])c1 | 12 | 10 | 122 | 
8 | CN1CCC[C@H]1COc1cc(Br)cc([N+](=O)[O-])c1 | 55 | 8 | 415 | 
9 | COc1cccc(OC[C@@H]2CCCN2C)c1 | 600 | 7 | 4500 | 
10 | CN1CCC[C@H]1COc1cccc(C#CCCCCO)c1 | 4400 | 2 | 8300 | 
11 | CN1CCC[C@H]1COc1cc(O)cc(C#CCCCCO)c1 | 23.7 | 131 | 3100 | 
